The supplement of paper PMC13380429

What was measured:
Settings in all cases: 72 h
Vero E6 [1] = test: relative viability EC50 (midpoint between 100% and the lowest measured viability); higher = less toxic
Caco-2 [2] = test: as above
HepG2 [3] = test: cell viability relative to DMSO; higher = less toxic
Vero E6 [4] = test: as above
U2OS [5] = test: as above
Caco-2 [6] = test: as above
HepG2 [7] = test: drug sensitivity score (DSS) for viability; higher = more toxic; extreme values may be limits of the assay
Vero E6 [8] = test: as above
U2OS [9] = test: as above
Caco-2 [10] = test: as above
HepG2 [11] = test: relative viability EC50 (midpoint between 100% and the lowest measured viability); higher = less toxic
U2OS [12] = test: as above
Calu-3 [13] = test: drug sensitivity score (DSS) for viability; higher = more toxic; extreme values may be limits of the assay
Calu-3 [14] = test: cell viability relative to DMSO; higher = less toxic

SMILES	relative viability EC50 (Vero E6 [1])	relative viability EC50 (Caco-2 [2])	cell viability (HepG2 [3]; 1 nM)	cell viability (HepG2 [3]; 10 nM)	cell viability (HepG2 [3]; 100 nM)	cell viability (HepG2 [3]; 1000 nM)	cell viability (HepG2 [3]; 10000 nM)	cell viability (Vero E6 [4]; 1 nM)	cell viability (Vero E6 [4]; 10 nM)	cell viability (Vero E6 [4]; 100 nM)	cell viability (Vero E6 [4]; 1000 nM)	cell viability (Vero E6 [4]; 10000 nM)	cell viability (U2OS [5]; 1 nM)	cell viability (U2OS [5]; 10 nM)	cell viability (U2OS [5]; 100 nM)	cell viability (U2OS [5]; 1000 nM)	cell viability (U2OS [5]; 10000 nM)	cell viability (Caco-2 [6]; 1 nM)	cell viability (Caco-2 [6]; 10 nM)	cell viability (Caco-2 [6]; 100 nM)	cell viability (Caco-2 [6]; 1000 nM)	cell viability (Caco-2 [6]; 10000 nM)	drug sensitivity score (HepG2 [7])	drug sensitivity score (Vero E6 [8])	drug sensitivity score (U2OS [9])	drug sensitivity score (Caco-2 [10])	relative viability EC50 (HepG2 [11])	relative viability EC50 (U2OS [12])	drug sensitivity score (Calu-3 [13])	cell viability (Calu-3 [14]; 1 nM)	cell viability (Calu-3 [14]; 10 nM)	cell viability (Calu-3 [14]; 100 nM)	cell viability (Calu-3 [14]; 1000 nM)	cell viability (Calu-3 [14]; 10000 nM)
C[C@@H](N)c1ccc(C(=O)Nc2ccnc3[nH]ccc23)cc1	> 10 µM	> 10 µM	93.7%	94.4%	105%	89.8%	68.4%	99.1%	98.5%	96.6%	93%	86.5%	99.3%	96.8%	99%	98.2%	75%	95.8%	101%	110%	105%	91.6%	2.8	0.2	1.2	0								
O=[N+]([O-])c1ccc(O)c([N+](=O)[O-])c1 [2,4-dinitrophenol]	> 10 µM		100%	89.5%	110%	106%	103%	94%	103%	100%	92.9%	99.1%	96.2%	102%	106%	105%	97%	89.3%	96.8%	82.7%	98.8%	73.4%	0	0	0	1.8	> 10 µM	> 10 µM						
COc1ccccc1N1CCN(CCCCNC(=O)c2ccc3ccccc3c2)CC1 [BP-897]																							0	0	0				0.8					
COc1cc(C(=O)N2CCC(N3CCN(C)CC3)CC2)ccc1Nc1ncc2c(n1)N(C)c1ccccc1C(=O)N2C [LRRK2-IN-1]	2.64 µM		99.4%	99.4%	98.8%	103%	31.6%	99.5%	100%	94%	94.3%	13.5%	101%	95.9%	98.5%	90.6%	50.1%	96%	87.2%	98.8%	91.7%	67.8%	3.5	5.7	4.2	2.7	3.42 µM		4.4	102%	89.2%	102%	88.1%	52.2%
O=C(NO)c1ccc2[nH]c(=O)c(CCCc3ccccc3)nc2c1 [TCS-2210]	> 10 µM	> 10 µM	108%	96.5%	100%	94.7%	39.9%	87.5%	96.1%	89%	98.4%	101%	99.1%	96.3%	102%	94.4%	66.8%	94.2%	95.8%	101%	94.8%	96.4%	4.1	0	2.4	0	2.44 µM		4.3	136%	93.7%	98%	78.4%	62%
Oc1nc(-c2ccc(C(F)(F)F)cc2)nc2c1CSCC2 [XAV-939]		> 10 µM	101%	108%	98.2%	99.7%	94.4%	94.6%	98.5%	97%	90.4%	69.6%	105%	101%	101%	99.2%	96.4%	103%	97%	99.8%	92.3%	101%	0	2.4	0	0	> 10 µM	> 10 µM	2.7	110%	94%	97.1%	84.1%	71.7%
O=C(O)COC(=O)Cc1ccccc1Nc1c(Cl)cccc1Cl [aceclofenac]																							0	0	0				0					
Nc1ncn([C@@H]2O[C@H](CO)[C@@H](O)[C@H]2O)c(=O)n1 [azacitidine]	1.98 µM		97.9%	99.7%	95.9%	94.1%	57.8%	97.3%	102%	95.9%	90.5%	37.3%	98%	102%	98.6%	102%	98.4%	87.3%	104%	96.1%	90.1%	67.9%	3.1	5	0	2.6		> 10 µM	3.5	102%	90.9%	88.5%	87.2%	64%
CNC(=O)Oc1cccc2ccccc12 [carbaril]																							0	0	0				0					
CC1=NN(c2ccc(C)c(C)c2)C(=O)/C1=N\Nc1cccc(-c2cccc(C(=O)O)c2)c1O [eltrombopag]	> 10 µM	> 10 µM	97.4%	92%	105%	96.8%	44.5%	97.6%	93.5%	91.9%	90.7%	82.9%	95.6%	102%	100%	101%	71.1%	93.5%	89.8%	93.5%	97.9%	82.1%	3.4	0.8	1.2	0	2.71 µM		1.5	114%	102%	100%	96.7%	74.3%
Nc1nc2c(ncn2COC(CO)CO)c(=O)[nH]1 [ganciclovir]																							0	0	0				0					
CCC(=O)O[C@@H]1CC(=O)O[C@H](C)C/C=C/C=C/[C@H](O)[C@H](C)C[C@H](CC=O)[C@H](O[C@@H]2O[C@H](C)[C@@H](O[C@H]3C[C@@](C)(O)[C@@H](OC(=O)CC)[C@H](C)O3)[C@H](N(C)C)[C@H]2O)[C@H]1OC [midecamycin]	> 10 µM	> 10 µM	103%	93.1%	91.5%	98%	74%	105%	97.7%	101%	102%	95.2%	97.1%	97%	99.2%	96.2%	97.6%	94.4%	99.1%	103%	91.8%	91.4%	1.3	0	0	0		> 10 µM						
CCCOc1ccc2[nH]c(NC(=O)OC)nc2c1 [oxibendazole]	0.54 µM		91.1%	95.8%	94.6%	103%	54.4%	95.1%	96.3%	90.2%	63.8%	41.9%	101%	95.2%	101%	102%	47.5%	94.8%	93.7%	107%	96.4%	63.1%	2.1	7.9	2.6	2.4		3.4 µM	2.1	102%	97.2%	97.1%	97.8%	63%
NS(=O)(=O)OC[C@@H]1C[C@@H](n2ccc3c(N[C@H]4CCc5ccccc54)ncnc32)C[C@@H]1O [pevonedistat]	3.45 µM		96.3%	111%	77.6%	58.2%	32.7%	96.9%	107%	103%	104%	24.3%	98.6%	98.6%	101%	71%	14.9%	95.3%	106%	87.7%	92.4%	60.1%	10.3	3.9	8.8	3.1	0.401 µM	1.3 µM	1.6	94.9%	97.2%	104%	97.4%	71.8%
N=C(N)NC(=O)c1cnccn1 [pyrazinoylguanidine]	> 10 µM	> 10 µM	104%	97.1%	94.9%	99.1%	104%	99.8%	106%	104%	106%	99.7%						107%	100%	101%	99.7%	101%	0	0		0	> 10 µM							
C=C[C@H]1CN2CC[C@H]1C[C@@H]2[C@@H](O)c1ccnc2ccc(OC)cc12 [quinidine]																							0	0	0				0					
CCN1CCCC1CNC(=O)c1cc(S(N)(=O)=O)ccc1OC (configuration not stated) [sulpiride]																							0	0	0				0					
O=c1ccn([C@@H]2O[C@H](CO)[C@@H](O)[C@H]2O)c(=O)[nH]1 [uridine]																							0.8	0	0				0					
